Assay results reported in patent US8507533B2, “Glucagon receptor modulators” (Pfizer Inc., priority 2011, dated 2013).

Key:
human glucagon receptor [1] = molecular target: T1, human glucagon receptor (Homo sapiens (Human), UniProt P47871); assay: Glucagon cAMP Assay (Cisbio cAMP detection); type: cell-based; settings: CHOK1 cells stably transfected with the human glucagon receptor; block of glucagon induced cAMP production; Kb by modified Cheng-Prusoff equation
human glucagon receptor [2] = molecular target: T1, human glucagon receptor; assay: Human Glucagon SPA Assay (binding of [125I]Glucagon-Cex); settings: membrane from chem-1 cells stably transfected with the human glucagon receptor, Ki by Cheng-Prusoff equation

T1 sequence (P47871 26-477): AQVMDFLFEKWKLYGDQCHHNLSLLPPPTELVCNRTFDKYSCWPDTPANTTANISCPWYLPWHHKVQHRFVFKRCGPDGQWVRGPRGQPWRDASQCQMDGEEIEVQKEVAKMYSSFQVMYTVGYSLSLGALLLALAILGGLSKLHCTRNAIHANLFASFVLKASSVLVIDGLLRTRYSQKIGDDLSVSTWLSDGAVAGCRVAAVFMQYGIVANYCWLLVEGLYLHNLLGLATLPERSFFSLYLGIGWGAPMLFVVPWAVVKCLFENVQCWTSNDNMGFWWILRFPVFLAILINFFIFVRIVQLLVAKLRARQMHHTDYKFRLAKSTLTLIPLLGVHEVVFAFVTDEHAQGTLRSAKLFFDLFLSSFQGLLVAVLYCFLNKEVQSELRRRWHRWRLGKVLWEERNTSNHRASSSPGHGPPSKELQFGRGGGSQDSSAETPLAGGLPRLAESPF

Row | SMILES | Kb (human glucagon receptor [1]) | Ki (human glucagon receptor [2])
1 | CCCC(Oc1cc(C)c(-n2cc3ccccc3n2)c(C)c1)c1ccc(C(=O)NCCC(=O)O)cc1 (stereo not drawn) [Example 189, (+\−)-3-(4-(1-(4-(2H-indazol-2-yl)-3,5-dimethylphenoxy)butyl)benzamido)propanoic acid] | 370 nM | 109 nM
2 | CCCC(Nc1ccc(C(=O)NCCC(=O)O)cn1)c1ccc(-n2cc(C(F)(F)F)cn2)nc1 (stereo not drawn) [Example 190, (+\−)-3-(6-(1-(6-(4-(trifluoromethyl)-1H-pyrazol-1-yl)pyridin-3-yl)butylamino)nicotinamido)propanoic acid] | 978 nM | 399 nM
3 | O=C(O)CCNC(=O)c1ccc(C(Nc2cnc(-n3cnc(C(F)(F)F)c3)nc2)C2CCCC2)cc1 (stereo not drawn) [Example 193, 3-(4-(cyclopentyl(2-(4-(trifluoromethyl)-1H-imidazol-1-yl)pyrimidin-5-ylamino)methyl)benzamido)propanoic acid] | 84.1 nM | 44.7 nM
